Where two headings read alike, the source gives them in different places.
Key:
Type in all cases: biochemical
CYP1A2 = biological target: T1, CYP1A2 (Homo sapiens, UniProt P05177); experiment: Cocktail assay for CYPs in human liver microsomes: CYP1A2 (phenacetin O-deethylation)
T1 construct: 0.1 mg/mL protein human liver microsomes (BD Gentest); tissue BD Gentest; host or cells: human liver microsomes
T1 sequence (P05177 1-516): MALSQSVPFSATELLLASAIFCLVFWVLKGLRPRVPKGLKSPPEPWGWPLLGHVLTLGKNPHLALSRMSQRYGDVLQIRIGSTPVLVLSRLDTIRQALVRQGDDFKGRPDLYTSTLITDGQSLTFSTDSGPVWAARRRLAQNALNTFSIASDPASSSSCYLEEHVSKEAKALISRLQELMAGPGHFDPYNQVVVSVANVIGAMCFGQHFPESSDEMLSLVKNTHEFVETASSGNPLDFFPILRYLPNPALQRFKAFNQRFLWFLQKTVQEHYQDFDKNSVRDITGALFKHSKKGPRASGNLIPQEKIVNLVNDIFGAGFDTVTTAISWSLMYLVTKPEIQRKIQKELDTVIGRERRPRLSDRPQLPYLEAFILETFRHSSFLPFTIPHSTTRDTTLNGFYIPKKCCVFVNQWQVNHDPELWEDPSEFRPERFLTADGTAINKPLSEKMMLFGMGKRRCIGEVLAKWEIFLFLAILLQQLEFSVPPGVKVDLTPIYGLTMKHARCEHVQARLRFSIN

CYP2C9 = biological target: T2, CYP2C9 (Homo sapiens, UniProt P11712); experiment: Cocktail assay for CYPs in human liver microsomes: CYP2C9 (diclofenac 4′-hydroxylation); conditions: 5 μM diclofenac, 10 min at 37° C., 6 concentrations up to 10 μM
T2 construct: 0.1 mg/mL protein human liver microsomes (BD Gentest); tissue BD Gentest; host or cells: human liver microsomes

CYP2D6 = biological target: T3, CYP2D6 (Homo sapiens, UniProt P10635); experiment: Cocktail assay for CYPs in human liver microsomes: CYP2D6 (dextromethorphan O-demethylation); conditions: 5 μM dextromethorphan, 10 min at 37° C., 6 concentrations up to 10 μM
T3 construct: 0.1 mg/mL protein human liver microsomes (BD Gentest); tissue BD Gentest; host or cells: human liver microsomes

CYP2C19 = biological target: T4, CYP2C19 (Homo sapiens, UniProt P33261); experiment: Cocktail assay for CYPs in human liver microsomes: CYP2C19 (mephenytoin 4′-hydroxylation); conditions: 30 μM mephenytoin, 10 min at 37° C., 6 concentrations up to 10 μM
T4 construct: 0.1 mg/mL protein human liver microsomes (BD Gentest); tissue BD Gentest; host or cells: human liver microsomes

CYP3A4 = biological target: T5, CYP3A4 (Homo sapiens, UniProt P08684); experiment: Cocktail assay for CYPs in human liver microsomes: CYP3A4 (midazolam 1′-hydroxylation); conditions: 2 μM midazolam, 10 min at 37° C., 6 concentrations up to 10 μM
T5 construct: 0.1 mg/mL protein human liver microsomes (BD Gentest); tissue BD Gentest; host or cells: human liver microsomes

[1] = human liver microsomes 0.1 mg/mL, 10 μM phenacetin, 10 min at 37° C., 6 concentrations up to 10 μM, read-out: IC50 (nM) CYP1A2
[2] = human liver microsomes 0.1 mg/mL, read-out: IC50 (nM) CYP2C9
[3] = human liver microsomes 0.1 mg/mL, read-out: IC50 (nM) CYP2D6
[4] = human liver microsomes 0.1 mg/mL, read-out: IC50 (nM) CYP2C19
[5] = human liver microsomes 0.1 mg/mL, read-out: IC50 (nM) CYP3A4
[6] = IC50 (nM) CYP2C9, human liver microsomes 0.1 mg/mL
[7] = IC50 (nM) CYP2D6, human liver microsomes 0.1 mg/mL
[8] = IC50 (nM) CYP2C19, human liver microsomes 0.1 mg/mL
[9] = IC50 (nM) CYP3A4, human liver microsomes 0.1 mg/mL

T4 sequence (P33261 whole entry): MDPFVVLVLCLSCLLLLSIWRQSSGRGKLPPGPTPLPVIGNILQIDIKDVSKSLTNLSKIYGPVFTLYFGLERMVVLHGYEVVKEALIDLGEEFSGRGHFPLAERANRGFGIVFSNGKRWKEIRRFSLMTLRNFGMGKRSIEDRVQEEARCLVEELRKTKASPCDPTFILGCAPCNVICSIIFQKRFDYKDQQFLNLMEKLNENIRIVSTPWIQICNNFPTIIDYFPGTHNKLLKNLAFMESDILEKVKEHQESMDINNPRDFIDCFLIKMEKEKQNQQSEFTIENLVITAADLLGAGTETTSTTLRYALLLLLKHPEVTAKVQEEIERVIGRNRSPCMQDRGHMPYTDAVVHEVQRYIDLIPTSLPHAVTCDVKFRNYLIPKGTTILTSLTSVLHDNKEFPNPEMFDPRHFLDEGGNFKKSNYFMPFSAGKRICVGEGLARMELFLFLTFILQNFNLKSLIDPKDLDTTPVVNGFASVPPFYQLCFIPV
T5 sequence (P08684 whole entry): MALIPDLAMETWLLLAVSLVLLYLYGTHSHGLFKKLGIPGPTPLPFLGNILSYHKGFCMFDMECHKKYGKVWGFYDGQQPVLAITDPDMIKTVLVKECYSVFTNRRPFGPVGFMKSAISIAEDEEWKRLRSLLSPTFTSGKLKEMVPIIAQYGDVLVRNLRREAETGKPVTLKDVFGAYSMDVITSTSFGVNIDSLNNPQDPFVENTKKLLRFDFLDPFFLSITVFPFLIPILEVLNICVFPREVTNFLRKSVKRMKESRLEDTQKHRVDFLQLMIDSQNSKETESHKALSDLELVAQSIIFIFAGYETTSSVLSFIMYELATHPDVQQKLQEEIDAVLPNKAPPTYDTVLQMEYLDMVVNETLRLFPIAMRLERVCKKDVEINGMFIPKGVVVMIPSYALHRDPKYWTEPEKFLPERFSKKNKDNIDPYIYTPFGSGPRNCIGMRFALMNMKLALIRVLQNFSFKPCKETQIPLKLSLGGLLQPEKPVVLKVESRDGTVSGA
T2 sequence (P11712 whole entry): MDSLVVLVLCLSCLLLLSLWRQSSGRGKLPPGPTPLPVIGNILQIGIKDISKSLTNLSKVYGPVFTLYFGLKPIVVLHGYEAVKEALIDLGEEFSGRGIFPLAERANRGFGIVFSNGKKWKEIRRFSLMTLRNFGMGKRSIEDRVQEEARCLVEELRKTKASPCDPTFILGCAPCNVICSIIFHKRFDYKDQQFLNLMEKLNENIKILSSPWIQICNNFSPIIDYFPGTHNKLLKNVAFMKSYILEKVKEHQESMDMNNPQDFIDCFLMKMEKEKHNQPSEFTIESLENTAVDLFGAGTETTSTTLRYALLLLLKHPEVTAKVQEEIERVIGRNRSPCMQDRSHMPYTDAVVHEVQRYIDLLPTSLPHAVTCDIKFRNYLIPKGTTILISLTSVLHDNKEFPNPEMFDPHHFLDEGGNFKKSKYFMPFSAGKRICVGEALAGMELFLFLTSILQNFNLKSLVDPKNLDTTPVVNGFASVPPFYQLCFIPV
T3 sequence (P10635 whole entry): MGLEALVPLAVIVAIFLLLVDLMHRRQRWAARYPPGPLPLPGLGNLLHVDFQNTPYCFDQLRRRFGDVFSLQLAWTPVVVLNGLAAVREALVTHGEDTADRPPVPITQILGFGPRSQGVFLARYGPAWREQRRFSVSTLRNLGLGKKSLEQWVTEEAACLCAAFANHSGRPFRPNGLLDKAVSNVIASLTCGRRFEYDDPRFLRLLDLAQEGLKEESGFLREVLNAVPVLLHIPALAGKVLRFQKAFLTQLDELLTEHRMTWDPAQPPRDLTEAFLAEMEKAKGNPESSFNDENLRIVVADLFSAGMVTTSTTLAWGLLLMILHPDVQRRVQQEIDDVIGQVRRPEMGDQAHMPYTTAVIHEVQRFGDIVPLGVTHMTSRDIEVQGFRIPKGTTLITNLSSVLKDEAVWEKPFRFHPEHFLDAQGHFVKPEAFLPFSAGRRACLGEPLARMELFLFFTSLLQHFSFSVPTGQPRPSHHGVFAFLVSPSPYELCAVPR

Row | SMILES | IC50 (CYP1A2; [1]) [nM] | IC50 (CYP2C9; [2]) [nM] | IC50 (CYP2D6; [3]) [nM] | IC50 (CYP2C19; [4]) [nM] | IC50 (CYP3A4; [5]) [nM] | IC50 (CYP1A2) [nM] | IC50 (CYP2C9; [6]) [nM] | IC50 (CYP2D6; [7]) [nM] | IC50 (CYP2C19; [8]) [nM] | IC50 (CYP3A4; [9]) [nM]
1 | C[C@H](c1ccc(C#N)cc1)n1cncc1CN1CCN(c2ccccc2)C(C(=O)N2CCC(F)(F)CC2)C1 (stereo partly drawn) [Compound 47, 4-((1R)-1-(5-((3-(4,4-difluoropiperidine-1-carbonyl)-4-phenylpiperazin-1-yl)methyl)-1H-imidazol-1-yl)ethyl) benzonitrile] | > 10000 | 9270 | > 10000 | 7830 | 20 | – | – | – | – | –
2 | CC(C1CCOCC1)n1cncc1CN1CCN(c2nc3ccc(F)c(F)c3o2)CC1 (centres unmarked) [Compound 35, 6,7-difluoro-2-(4-((1-(1-(tetrahydro-2H-pyran-4-yl)ethyl)-1H-imidazol-5-yl)methyl)piperazin-1-yl) benzo[d]oxazole] | > 10000 | > 10000 | > 10000 | > 10000 | 4 | – | – | – | – | –
3 | CC(c1ccccc1-c1ccc(F)cc1)n1cncc1CN1CCC(O)C1 (centres unmarked) [Compound 17, 1-((1-(1-(4′-fluoro-[1,1′-biphenyl]-2-yl)ethyl)-1H-imidazol-5-yl)methyl) pyrrolidin-3-ol] | > 10000 | > 10000 | 4040 | > 10000 | 29 | – | – | – | – | –
4 | CC1CN(Cc2cncn2[C@H](C)c2ccc(F)cc2)CC(C)N1C(=O)C1(C)CC1 (stereo partly drawn) [Compound 54, (4-((1-((R)-1-(4-fluorophenyl)ethyl)-1H-imidazol-5-yl)methyl)-2,6-dimethylpiperazin-1-yl)(1-methylcyclopropyl) methanone] | > 10000 | 2860 | > 10000 | 3350 | 14 | – | – | – | – | –
5 | C[C@H](c1ccc(F)cc1)n1cncc1CN1CCN(C(=O)C2CCOCC2)C(c2ccccc2)C1 (single isomer, unassigned) [Compound 52b] | > 10000 | 6200 | > 10000 | 3670 | 27 | – | – | – | – | –
6 | CC1CN(Cc2cncn2C(C)C2CCOCC2)CC(C)N1C(=O)C1(C)CC1 (centres unmarked) [Compound 56, (2,6-dimethyl-4-((1-(1-(tetrahydro-2H-pyran-4-yl)ethyl)-1H-imidazol-5-yl)methyl)piperazin-1-yl)(1-methylcyclopropyl) methanone] | > 10000 | > 10000 | 7160 | > 10000 | 35 | – | – | – | – | –
7 | N#Cc1ccc(C2(n3cncc3CN3CCC(C#N)(c4ccc(F)cc4)CC3)CC2)cc1 [Compound 12, 1-((1-(1-(4-cyanophenyl)cyclopropyl)-1H-imidazol-5-yl)methyl)-4-(4-fluorophenyl)piperidine-4-carbonitrile] | – | – | – | – | – | 1470 | 5320 | 6360 | 3980 | 50
8 | C[C@H](c1ccc(F)cc1)n1cncc1CN1CCN(C(=O)c2ccccn2)C(c2ccccc2)C1 (some centres unmarked) [Compound 53] | > 10000 | 6120 | 9840 | > 10000 | 13 | – | – | – | – | –
9 | CC(c1ccccc1-c1ccc(F)cc1)n1cncc1CN1CCCNC(=O)C1 (centres unmarked) [Compound 18, 4-((1-(1-(4′-fluoro-[1,1′-biphenyl]-2-yl)ethyl)-1H-imidazol-5-yl)methyl)-1,4-diazepan-2-one] | > 10000 | > 10000 | > 10000 | 4790 | 29 | – | – | – | – | –
10 | COc1ccc(CNc2ncc(CN3CCN(Cc4cncn4[C@H](C)c4ccc(F)cc4)CC3=O)s2)c(OC)c1 [Compound 65, (R)-1-((2-((2,4-dimethoxybenzyl)amino)thiazol-5-yl)methyl)-4-((1-(1-(4-fluorophenyl)ethyl)-1H-imidazol-5-yl)methyl)piperazin-2-one] | > 10000 | 8780 | 3360 | 1340 | 10 | – | – | – | – | –
11 | C[C@H](c1ccc(F)cc1)n1cncc1CN1CCC(C#N)(c2ccccc2)CC1 [Compound 14, (R)-1-((1-(1-(4-fluorophenyl)ethyl)-1H-imidazol-5-yl)methyl)-4-phenylpiperidine-4-carbonitrile] | – | – | – | – | – | 5520 | 2200 | 3700 | 2600 | 17
12 | C[C@H](c1ccc(C#N)cc1)n1cncc1CN1CCC2(CC1)C(=O)NCN2c1ccccc1 [Compound 19, (R)-4-(1-(5-((4-oxo-1-phenyl-1,3,8-triazaspiro[4.5]decan-8-yl)methyl)-1H-imidazol-1-yl)ethyl) benzonitrile] | > 10000 | 1660 | 9970 | 2420 | 50 | – | – | – | – | –
13 | C[C@H](c1ccc(F)cc1)n1cncc1CN1CCN(c2nc3ccccc3o2)CC1 [Compound 23, (R)-2-(4-((1-(1-(4-fluorophenyl)ethyl)-1H-imidazol-5-yl)methyl)piperazin-1-yl)benzo[d]oxazole] | > 10000 | 4370 | 2920 | 3160 | 7 | – | – | – | – | –
14 | C[C@H](c1ccc(F)cc1)n1cncc1CN1CCN(Cc2cn3ccccc3n2)C(=O)C1 [Compound 63, (R)-4-((1-(1-(4-fluorophenyl)ethyl)-1H-imidazol-5-yl)methyl)-1-(imidazo[1,2-a]pyridin-2-ylmethyl)piperazin-2-one] | ≥ 10000 | > 10000 | > 10000 | > 10000 | 46 | – | – | – | – | –
15 | CNc1ncc(CN2CCN(Cc3cncn3[C@H](C)c3ccc(F)cc3)CC2=O)s1 [Compound 67, (R)-4-((1-(1-(4-fluorophenyl)ethyl)-1H-imidazol-5-yl)methyl)-1-((2-(methylamino)thiazol-5-yl)methyl) piperazin-2-one] | > 10000 | > 10000 | > 10000 | > 10000 | 75 | – | – | – | – | –
16 | C[C@H](c1ccc(F)cc1)n1cncc1CN1CCN(Cc2cnc(N3CCOCC3)s2)C(=O)C1 [Compound 68, (R)-4-((1-(1-(4-fluorophenyl)ethyl)-1H-imidazol-5-yl)methyl)-1-((2-morpholinothiazol-5-yl)methyl)piperazin-2-one] | > 10000 | > 10000 | > 10000 | > 10000 | 80 | – | – | – | – | –
17 | Cc1cccc2nc(N3CCN(Cc4cncn4[C@H](C)c4ccc(C#N)cc4)CC3)oc12 [Compound 29, (R)-4-(1-(5-((4-(7-methylbenzo[d]oxazol-2-yl)piperazin-1-yl)methyl)-1H-imidazol-1-yl)ethyl)benzonitrile] | > 10000 | 2490 | 2770 | 4970 | 20 | – | – | – | – | –
18 | CCS(=O)(=O)CCc1cnc(N2CCN(Cc3cncn3[C@H](C)Cc3ccc(F)cc3)CC2)s1 [Compound 41, (R)-5-(2-(ethylsulfonyl)ethyl)-2-(4-((1-(1-(4-fluorophenyl)propan-2-yl)-1H-imidazol-5-yl)methyl)piperazin-1-yl)thiazole] | > 10000 | 2700 | 2380 | 2230 | 30 | – | – | – | – | –
19 | CCS(=O)(=O)c1cnc(N2CCN(Cc3cncn3[C@H](C)Cc3ccc(F)cc3)CC2)s1 [Compound 40, (R)-5-(ethylsulfonyl)-2-(4-((1-(1-(4-fluorophenyl)propan-2-yl)-1H-imidazol-5-yl)methyl)piperazin-1-yl)thiazole] | > 10000 | > 10000 | 5260 | > 10000 | 27 | – | – | – | – | –

Source: patent US10745377B2, “Piperidine or piperazine linked imidazole and triazole derivatives and methods of use” (MERCK SHARP & DOHME CORP., priority 2013, dated 2020)
